Columns and labels:
Settings in all cases: exposure time: 72 h
[1] = system: E13 (patient-derived glioblastoma stem cells of classical subtype); assay: surviving fraction (nuclei count normalised to DMSO); higher = more cells surviving (less toxic)
[2] = system: E21 (patient-derived glioblastoma stem cells of mesenchymal subtype); assay: as above
[3] = system: E28 (patient-derived glioblastoma stem cells of classical subtype); assay: as above
[4] = system: E31 (patient-derived glioblastoma stem cells of proneural subtype); assay: as above
[5] = system: E34 (patient-derived glioblastoma stem cells of proneural subtype); assay: as above
[6] = system: E57 (patient-derived glioblastoma stem cells of mesenchymal subtype); assay: as above
[7] = system: FT3469 (normal neural stem cell line); assay: as above
[8] = system: E13; assay: phenotypic distance (Euclidean, principal components) from DMSO controls (arbitrary units); higher = stronger morphological change
[9] = system: E21; assay: as above
[10] = system: E28; assay: as above
[11] = system: E31; assay: as above
[12] = system: E34; assay: as above
[13] = system: E57; assay: as above
[14] = system: FT3469; assay: as above
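Throughout, for phenotypic distance (Euclidean, principal components) from DMSO controls: cell Painting imaging in 384-well plates, CellProfiler features reduced to at least 20 principal components, Euclidean distance versus same-plate DMSO vehicle wells (0.1% v/v), median over six images per well.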
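Throughout, for surviving fraction (nuclei count normalised to DMSO): nuclei counted by high-content imaging of Hoechst-stained cells in laminin-coated 384-well plates, relative to 0.1% DMSO vehicle wells, with staurosporine as cell-death control.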

O=[N+]([O-])c1ccc2c(c1)S(=O)(=O)C=C2 [Stattic]
Settings	phenotypic distance	surviving fraction
[1], 4.11523 nM	–	0.862
[1], 12.34567901 nM	–	0.789
[1], 37.037 nM	–	0.891
[1], 111.1111111 nM	–	0.753
[1], 333.333 nM	–	0.472
[1], 1000 nM	–	0.0609
[1], 3000 nM	–	0.0209
[2], 4.11523 nM	–	0.828
[2], 12.34567901 nM	–	0.855
[2], 37.037 nM	–	0.849
[2], 111.1111111 nM	–	0.728
[2], 333.333 nM	–	0.517
[2], 1000 nM	–	0.0242
[2], 3000 nM	–	0.00527
[3], 4.11523 nM	–	1.06
[3], 12.34567901 nM	–	0.809
[3], 37.037 nM	–	0.932
[3], 111.1111111 nM	–	0.745
[3], 333.333 nM	–	0.566
[3], 1000 nM	–	0.0457
[3], 3000 nM	–	0.00486
[4], 4.11523 nM	–	0.993
[4], 12.34567901 nM	–	0.809
[4], 37.037 nM	–	0.852
[4], 111.1111111 nM	–	0.608
[4], 333.333 nM	–	0.395
[4], 1000 nM	–	0.00296
[4], 3000 nM	–	0.00296
[5], 4.11523 nM	–	0.907
[5], 12.34567901 nM	–	0.804
[5], 37.037 nM	–	0.719
[5], 111.1111111 nM	–	0.708
[5], 333.333 nM	–	0.568
[5], 1000 nM	–	0.223
[5], 3000 nM	–	0.00905
[6], 4.11523 nM	–	0.876
[6], 12.34567901 nM	–	0.843
[6], 37.037 nM	–	0.926
[6], 111.1111111 nM	–	0.848
[6], 333.333 nM	–	0.631
[6], 1000 nM	–	0.166
[6], 3000 nM	–	0.0847
[7], 4.11523 nM	–	0.815
[7], 12.34567901 nM	–	0.831
[7], 37.037 nM	–	0.86
[7], 111.1111111 nM	–	0.73
[7], 333.333 nM	–	0.627
[7], 1000 nM	–	0.263
[7], 3000 nM	–	0.0263
[8], 4.11523 nM	0.979	–
[8], 12.34567901 nM	0.957	–
[8], 37.037 nM	0.849	–
[8], 111.1111111 nM	1.68	–
[8], 333.333 nM	3.33	–
[8], 1000 nM	8.57	–
[8], 3000 nM	12.1	–
[9], 4.11523 nM	1.03	–
[9], 12.34567901 nM	1.19	–
[9], 37.037 nM	0.697	–
[9], 111.1111111 nM	1.45	–
[9], 333.333 nM	2.92	–
[9], 1000 nM	11.2	–
[9], 3000 nM	10.4	–
[10], 4.11523 nM	0.371	–
[10], 12.34567901 nM	0.758	–
[10], 37.037 nM	0.541	–
[10], 111.1111111 nM	0.984	–
[10], 333.333 nM	1.97	–
[10], 1000 nM	7.45	–
[10], 3000 nM	19.2	–
[11], 4.11523 nM	0.51	–
[11], 12.34567901 nM	0.69	–
[11], 37.037 nM	0.645	–
[11], 111.1111111 nM	1.51	–
[11], 333.333 nM	3.02	–
[11], 1000 nM	11.5	–
[11], 3000 nM	12.4	–
[12], 4.11523 nM	0.778	–
[12], 12.34567901 nM	2.75	–
[12], 37.037 nM	1.33	–
[12], 111.1111111 nM	1.29	–
[12], 333.333 nM	1.83	–
[12], 1000 nM	6.7	–
[12], 3000 nM	11.7	–
[13], 4.11523 nM	1.16	–
[13], 12.34567901 nM	1.21	–
[13], 37.037 nM	0.778	–
[13], 111.1111111 nM	1.69	–
[13], 333.333 nM	2.66	–
[13], 1000 nM	6.04	–
[13], 3000 nM	6.85	–
[14], 4.11523 nM	1.08	–
[14], 12.34567901 nM	1.39	–
[14], 37.037 nM	0.934	–
[14], 111.1111111 nM	1.86	–
[14], 333.333 nM	1.92	–
[14], 1000 nM	8.18	–
[14], 3000 nM	12.6	–

From the supplement of paper PMC13207355
